Laboratory results as given in patent US10159640B2, “Prebiotic oral care compositions containing amino acids” (COLGATE-PALMOLIVE COMPANY, priority 2013, dated 2018).

Tests used:
Assay in all cases: Biofilm growth assay in BHI, crystal violet
Type in all cases: cell-based
Conditions in all cases: control = 1
Streptococcus salivarius = system: Streptococcus salivarius
Experimental: (§1) The increase in biofilm formation of the tested bacteria in response to selected compounds (Met-Pro, Phe-Glu) was investigated by setting up biofilm growth assays in a nutritionally rich medium (brain heart infusion broth (BHI), Oxoid), over 48 hours. Late exponential growth phase liquid cultures were prepared by transferring the respective bacterium from blood agar plates to BHI and overnight incubation at 37° C. in an anaerobic atmosphere for A. viscosus, V. parvula, F. nucleatum, P. gingivalis, P. intermedia, T. forsythia, A. naeslundii, and C. sputigena, and in a 5% CO2 environment for S. salivarius, S. sanguinis, S. mitis, A. actinomycetemcomitans, S. mutans, and S. gordonii. Overnight cultures were transferred to BHI and adjusted to a concentration of 1×10^7 CFU/ml by measuring the optical density at 600 nm (OD600) (BioRad SmartSpec 3000). For each strain, 200 μl of the bacterial suspension was added to a 96-well plate containing 20 μl of the respective di-peptides. Final concentrations of the di-peptides were set to 5, 10, 20 and 25 μmol/ml. […] Additionally, for each bacterium tested, a background control, to correct for background staining, was added. This background control contained the bacterium tested and 0.03 weight % chlorhexidine, as an antiseptic. Plates were incubated as previously described. After 48 hrs the supernatant was removed from the wells of the plates. The wells were washed twice with 1×100 μL PBS (phosphate buffered saline), fixed for 20 minutes with 96% vol. ethanol (96% vol. solution in water) and the biofilm retained at the bottom of the wells was stained with 1 weight % crystal violet (1 weight % solution in water). The bound dye was dissolved with 5% vol. acetic acid (5% vol. solution in water). Quantification of the stained biofilm was performed by measuring the absorbance at 630 nm using a Multiskan Ascent microplate reader (Thermo Scientific).
(§2) The experiment was carried out on three different days (thus providing 3 biological replicas) and each day the experiment was carried out in quadruple (thus providing 4 technical replicas) for each combination of bacterium with dipeptide and for each control. For each day and for each combination, the average (mean) of the values obtained (as detailed above) for the four technical replicas was calculated to provide a single value for each combination on each day. The values shown in Tables 7 to 8, below, are the average (mean) of the three single values obtained for each combination of bacterium with dipeptide.

[1] = system: Aggregatibacter actinomycetemcomitans
Experimental: as §1, §2

Tannerella forsythia = system: Tannerella forsythia
Experimental: as §1, §2

Veillonella parvula = system: Veillonella parvula
Experimental: as §1, §2

Fusobacterium nucleatum = system: Fusobacterium nucleatum
Experimental: as §1, §2

Streptococcus mutans = system: Streptococcus mutans
Experimental: as §1, §2

Prevotella intermedia = system: Prevotella intermedia
Experimental: as §1, §2

Capnocytophaga sputigena = system: Capnocytophaga sputigena
Experimental: as §1, §2

Streptococcus gordonii = system: Streptococcus gordonii
Experimental: as §1, §2

Porphyromonas gingivalis = system: Porphyromonas gingivalis
Experimental: as §1, §2

Streptococcus mitis = system: Streptococcus mitis
Experimental: as §1, §2

Actinomyces naeslundii = system: Actinomyces naeslundii
Experimental: as §1, §2

Actinomyces viscosus = system: Actinomyces viscosus
Experimental: as §1, §2

Streptococcus sanguinis = system: Streptococcus sanguinis
Experimental: as §1, §2

## Met-Pro
Streptococcus salivarius; 5 μmol/ml
  biofilm growth: OD 630 nm (crystal violet) at 48 hrs divided by OD of control: 0.8003
Streptococcus salivarius; 10 μmol/ml
  biofilm growth: OD 630 nm (crystal violet) at 48 hrs divided by OD of control: 0.9847
Streptococcus salivarius; 20 μmol/ml
  biofilm growth: OD 630 nm (crystal violet) at 48 hrs divided by OD of control: 1.0385
Streptococcus salivarius; 25 μmol/ml
  biofilm growth: OD 630 nm (crystal violet) at 48 hrs divided by OD of control: 1.4734
[1]; 5 μmol/ml
  biofilm growth: OD 630 nm (crystal violet) at 48 hrs divided by OD of control: 0.8177
[1]; 10 μmol/ml
  biofilm growth: OD 630 nm (crystal violet) at 48 hrs divided by OD of control: 0.5095
[1]; 20 μmol/ml
  biofilm growth: OD 630 nm (crystal violet) at 48 hrs divided by OD of control: 0.2556
[1]; 25 μmol/ml
  biofilm growth: OD 630 nm (crystal violet) at 48 hrs divided by OD of control: 0.1103
Tannerella forsythia; 5 μmol/ml
  biofilm growth: OD 630 nm (crystal violet) at 48 hrs divided by OD of control: 0.4857
Tannerella forsythia; 10 μmol/ml
  biofilm growth: OD 630 nm (crystal violet) at 48 hrs divided by OD of control: 0.4691
Tannerella forsythia; 20 μmol/ml
  biofilm growth: OD 630 nm (crystal violet) at 48 hrs divided by OD of control: 0.2726
Tannerella forsythia; 25 μmol/ml
  biofilm growth: OD 630 nm (crystal violet) at 48 hrs divided by OD of control: 0.1909
Veillonella parvula; 5 μmol/ml
  biofilm growth: OD 630 nm (crystal violet) at 48 hrs divided by OD of control: 0.2845
Veillonella parvula; 10 μmol/ml
  biofilm growth: OD 630 nm (crystal violet) at 48 hrs divided by OD of control: 0.2886
Veillonella parvula; 20 μmol/ml
  biofilm growth: OD 630 nm (crystal violet) at 48 hrs divided by OD of control: 0.1745
Veillonella parvula; 25 μmol/ml
  biofilm growth: OD 630 nm (crystal violet) at 48 hrs divided by OD of control: 0.2121
Fusobacterium nucleatum; 5 μmol/ml
  biofilm growth: OD 630 nm (crystal violet) at 48 hrs divided by OD of control: 0.6087
Fusobacterium nucleatum; 10 μmol/ml
  biofilm growth: OD 630 nm (crystal violet) at 48 hrs divided by OD of control: 0.5568
Fusobacterium nucleatum; 20 μmol/ml
  biofilm growth: OD 630 nm (crystal violet) at 48 hrs divided by OD of control: 0.6796
Fusobacterium nucleatum; 25 μmol/ml
  biofilm growth: OD 630 nm (crystal violet) at 48 hrs divided by OD of control: 0.5216
Streptococcus mutans; 5 μmol/ml
  biofilm growth: OD 630 nm (crystal violet) at 48 hrs divided by OD of control: 0.0252
Streptococcus mutans; 10 μmol/ml
  biofilm growth: OD 630 nm (crystal violet) at 48 hrs divided by OD of control: 0.0118
Streptococcus mutans; 20 μmol/ml
  biofilm growth: OD 630 nm (crystal violet) at 48 hrs divided by OD of control: 0.9625
Streptococcus mutans; 25 μmol/ml
  biofilm growth: OD 630 nm (crystal violet) at 48 hrs divided by OD of control: 1.3235
Prevotella intermedia; 5 μmol/ml
  biofilm growth: OD 630 nm (crystal violet) at 48 hrs divided by OD of control: 1.2520
Prevotella intermedia; 10 μmol/ml
  biofilm growth: OD 630 nm (crystal violet) at 48 hrs divided by OD of control: 0.9773
Prevotella intermedia; 20 μmol/ml
  biofilm growth: OD 630 nm (crystal violet) at 48 hrs divided by OD of control: 0.2095
Prevotella intermedia; 25 μmol/ml
  biofilm growth: OD 630 nm (crystal violet) at 48 hrs divided by OD of control: 0.1148
Capnocytophaga sputigena; 5 μmol/ml
  biofilm growth: OD 630 nm (crystal violet) at 48 hrs divided by OD of control: 0.2411
Capnocytophaga sputigena; 10 μmol/ml
  biofilm growth: OD 630 nm (crystal violet) at 48 hrs divided by OD of control: 0.1949
Capnocytophaga sputigena; 20 μmol/ml
  biofilm growth: OD 630 nm (crystal violet) at 48 hrs divided by OD of control: 0.1660
Capnocytophaga sputigena; 25 μmol/ml
  biofilm growth: OD 630 nm (crystal violet) at 48 hrs divided by OD of control: 0.0138
Streptococcus gordonii; 5 μmol/ml
  biofilm growth: OD 630 nm (crystal violet) at 48 hrs divided by OD of control: 1.4212
Streptococcus gordonii; 10 μmol/ml
  biofilm growth: OD 630 nm (crystal violet) at 48 hrs divided by OD of control: 1.8572
Streptococcus gordonii; 20 μmol/ml
  biofilm growth: OD 630 nm (crystal violet) at 48 hrs divided by OD of control: 1.6395
Streptococcus gordonii; 25 μmol/ml
  biofilm growth: OD 630 nm (crystal violet) at 48 hrs divided by OD of control: 1.4372
Porphyromonas gingivalis; 5 μmol/ml
  biofilm growth: OD 630 nm (crystal violet) at 48 hrs divided by OD of control: 0.6831
Porphyromonas gingivalis; 10 μmol/ml
  biofilm growth: OD 630 nm (crystal violet) at 48 hrs divided by OD of control: 0.7344
Porphyromonas gingivalis; 20 μmol/ml
  biofilm growth: OD 630 nm (crystal violet) at 48 hrs divided by OD of control: 0.8922
Porphyromonas gingivalis; 25 μmol/ml
  biofilm growth: OD 630 nm (crystal violet) at 48 hrs divided by OD of control: 0.4990
Streptococcus mitis; 5 μmol/ml
  biofilm growth: OD 630 nm (crystal violet) at 48 hrs divided by OD of control: 1.3974
Streptococcus mitis; 10 μmol/ml
  biofilm growth: OD 630 nm (crystal violet) at 48 hrs divided by OD of control: 1.4008
Streptococcus mitis; 20 μmol/ml
  biofilm growth: OD 630 nm (crystal violet) at 48 hrs divided by OD of control: 0.2959
Streptococcus mitis; 25 μmol/ml
  biofilm growth: OD 630 nm (crystal violet) at 48 hrs divided by OD of control: 0.0464
Actinomyces naeslundii; 5 μmol/ml
  biofilm growth: OD 630 nm (crystal violet) at 48 hrs divided by OD of control: 1.1703
Actinomyces naeslundii; 10 μmol/ml
  biofilm growth: OD 630 nm (crystal violet) at 48 hrs divided by OD of control: 0.9986
Actinomyces naeslundii; 20 μmol/ml
  biofilm growth: OD 630 nm (crystal violet) at 48 hrs divided by OD of control: 0.4130
Actinomyces naeslundii; 25 μmol/ml
  biofilm growth: OD 630 nm (crystal violet) at 48 hrs divided by OD of control: 0.1281
Actinomyces viscosus; 5 μmol/ml
  biofilm growth: OD 630 nm (crystal violet) at 48 hrs divided by OD of control: 0.4286
Actinomyces viscosus; 10 μmol/ml
  biofilm growth: OD 630 nm (crystal violet) at 48 hrs divided by OD of control: 0.4021
Actinomyces viscosus; 20 μmol/ml
  biofilm growth: OD 630 nm (crystal violet) at 48 hrs divided by OD of control: 0.1766
Actinomyces viscosus; 25 μmol/ml
  biofilm growth: OD 630 nm (crystal violet) at 48 hrs divided by OD of control: 0.0355
Streptococcus sanguinis; 5 μmol/ml
  biofilm growth: OD 630 nm (crystal violet) at 48 hrs divided by OD of control: 1.1768
Streptococcus sanguinis; 10 μmol/ml
  biofilm growth: OD 630 nm (crystal violet) at 48 hrs divided by OD of control: 1.7015
Streptococcus sanguinis; 20 μmol/ml
  biofilm growth: OD 630 nm (crystal violet) at 48 hrs divided by OD of control: 2.1767
Streptococcus sanguinis; 25 μmol/ml
  biofilm growth: OD 630 nm (crystal violet) at 48 hrs divided by OD of control: 1.6580
